The values below come from US20080025940A1, “Administration of 3-sulfanylpropanamide compounds for stimulating hair and eyelash growth and/or for stopping the loss and/or limiting the depigmentation thereof” (L'OREAL, priority 2005, published 2008).

For one test, the target named is T1, 15-PGDH (Homo sapiens, UniProt P15428).
T1 construct: made in house
T1 sequence (P15428 1-266): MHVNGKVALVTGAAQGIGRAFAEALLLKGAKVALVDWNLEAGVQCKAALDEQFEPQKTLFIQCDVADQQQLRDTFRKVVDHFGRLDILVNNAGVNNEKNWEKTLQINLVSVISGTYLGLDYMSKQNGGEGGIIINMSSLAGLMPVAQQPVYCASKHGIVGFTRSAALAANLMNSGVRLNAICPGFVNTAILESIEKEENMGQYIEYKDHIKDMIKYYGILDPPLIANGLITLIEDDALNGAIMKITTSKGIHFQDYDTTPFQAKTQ
The test can be described thus: Test on 15-PGDH (spectrophotometric, NAD/PGE2, 340 nm). As to conditions: at 100 μM. The test is classed as biochemical. The protocol:
The enzyme 15-PGDH is obtained as described in FR 02/05067 filed in the name of L'Oreal, as a suspension in a medium adjusted to a concentration of 0.3 mg/mL and then blocked at −80° C. For the purposes of the test, this suspension is thawed and stored in ice.
In parallel, a 100 mM, pH 7.4 Tris buffer containing 0.1 mM of dithiothreitol (D5545, Sigma-Aldrich, L'isle D'Abeau Chesne, BP 701, 38297, Saint Quentin Fallavier), 1.5 mM of β-NAD (N6522, Sigma-Aldrich, L'isle D'Abeau Chesne, BP 701, 38297, Saint Quentin Fallavier), and 50 μM of prostaglandin E2 (P4172, Sigma-Aldrich, L'isle D'Abeau Chesne, BP 701, 38297, Saint Quentin Fallavier) is prepared.
0.965 ml of this buffer (brought to 37° C. beforehand) is introduced into the cuvette of a spectrophotometer (Perkin-Elmer, Lambda 2) thermostatically maintained at 37° C., the measuring wavelength of which is set at 340 nm. 0.035 mL of enzymatic suspension at 37° C. is introduced into the cuvette concomitantly with the recording (corresponding to an increase in the optical density at 340 nm). The maximum reaction rate is recorded.
Consider `CSCCC(=O)Nc1ccccc1C(F)(F)F` [Example 5, 3-(methylsulfanyl)-N-[2-(trifluoromethyl)phenyl]propanamide], for which the inhibition at 100 µM turned out to be 21%.

Still in this test, the particulars now being: pH 7.4 Tris buffer, 37° C., 50 μM prostaglandin E2, 1.5 mM β-NAD; read-out: IC50 (concentration reducing the enzymatic activity of 15-PGDH by 50%, IC50dh).
Consider `CSCCC(=O)NCc1ccc(C)o1` [Example 1, N-[(5-methyl-2-furyl)methyl]-3-(methylsulfanyl)propanamide], for which the IC50 came to 0.8 µM.
Same read-out and setting: as for `CSCCC(=O)NCc1ccco1` [Example 2, N-(2-furylmethyl)-3-(methylsulfanyl)propanamide], the figure is 9.8 µM; as for `COc1ccc(CNC(=O)CCSC)cc1` [Example 3, N-(4-methoxybenzyl)-3-(methylsulfanyl)propanamide], 6 µM; as for `CCCCCCNC(=O)CCSC` [Example 4, N-hexyl-3-(methylsulfanyl)propanamide], 12 µM.
The same measure, in the same setting: with `CSCCC(=O)NC(C)c1ccccc1` (centres unmarked) [Example 7, 3-(methylsulfanyl)-N-(1-phenylethyl)propanamide] the figure was 14.7 µM; with `CSCCC(=O)NC1CCC1` [Example 8, N-cyclobutyl-3-(methylsulfanyl)propanamide], 47 µM.
“N-benzyl-3-(methylsulfanyl)propanamide [Example 6]”: the IC50 turned out to be 1.6 µM.

A word on the inhibition: it is the drop in the measured response relative to a control, in per cent.
